This passage reports TGI and GI50 results from PubChem BioAssay (NCI).

Structures are written as SMILES.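 Briefly, cells in 96-well plates were exposed to five compound concentrations for 48 h, and endpoints were estimated by linear interpolation. GI50: concentration for 50% inhibition of growth. TGI: concentration producing complete growth inhibition.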 A value given as a limit tells only on which side of the number the result lay.

Among the test systems are U251 CNS; K-562 leukemia; NCI-H522 lung; A498 renal; HCT-15 colon; OVCAR-5 ovarian; IGROV1 ovarian; HOP-62 NSCLC; SR leukemia; UACC-62 melanoma; OVCAR-8 ovarian; KM12 colon; UACC-257 melanoma; RPMI-8226 leukemia.
Assay in all cases: NCI anticancer screen, dose series, 48 h

`COc1cccc2c1C(=O)c1c(O)c3c(c(O)c1C2=O)C[C@@](O)(/C(C)=N/NC(=O)c1ccccc1)C[C@@H]3OC1CC(N)C(O)C(C)O1` (stereo partly specified): the TGI in the assay on U251 CNS was 7.18 µM; with K-562 leukemia it was 4.25 µM; in the assay with NCI-H522 lung, 1.1 µM; in the assay on A498 renal, 3.42 µM; in the assay with HCT-15 colon, 19.9 µM; in the assay on OVCAR-5 ovarian it was 4.73 µM. The TGI was found to be 6.35 µM in the assay on IGROV1 ovarian; 0.715 µM with HOP-62 NSCLC; 0.845 µM in the assay on SR leukemia; 1.19 µM in the assay with UACC-62 melanoma; 5.96 µM with OVCAR-8 ovarian; 6.64 µM in the assay with KM12 colon. For the same compound, the TGI with UACC-257 melanoma stood at 3.51 µM; with RPMI-8226 leukemia it was 3.85 µM.

Turning to `COc1ccc(CCCC(=O)O)c(C)c1`, the TGI in the assay on U251 CNS is 60.8 µM; in the assay on K-562 leukemia, over 100 µM; in the assay with NCI-H522 lung it was over 100 µM; with A498 renal, 52.6 µM; in the assay with HCT-15 colon, over 100 µM; in the assay with OVCAR-5 ovarian, over 100 µM. Further, the TGI is over 100 µM with IGROV1 ovarian; 75 µM in the assay with HOP-62 NSCLC; over 100 µM in the assay on SR leukemia; over 100 µM with UACC-62 melanoma; over 100 µM in the assay with OVCAR-8 ovarian; over 100 µM in the assay with KM12 colon. This compound also yielded a TGI in the assay on UACC-257 melanoma of over 100 µM.

In the case of `Nc1nc(N)c2nc(-c3ccco3)cnc2n1`, the TGI in the assay with U251 CNS, with K-562 leukemia, in the assay with NCI-H522 lung, in the assay on A498 renal, in the assay with HCT-15 colon and in the assay with OVCAR-5 ovarian was over 100 µM each time. The TGI in the assay on IGROV1 ovarian, in the assay with HOP-62 NSCLC, in the assay on SR leukemia, with UACC-62 melanoma, in the assay on OVCAR-8 ovarian and in the assay with KM12 colon was over 100 µM in each case. The TGI in the assay with UACC-257 melanoma and in the assay on RPMI-8226 leukemia was over 100 µM throughout.

As for `COc1cc2cc(C(=O)N3CC(CCl)c4c3cc(N(C)C)c3ccccc43)[nH]c2c(OC)c1OC` (stereo unspecified), the TGI with U251 CNS was 4.66 µM; in the assay with K-562 leukemia it was 0.0477 µM; with NCI-H522 lung, 0.0261 µM; with A498 renal, 0.0174 µM; in the assay with HCT-15 colon, over 41.4 µM; in the assay with OVCAR-5 ovarian it was 0.039 µM. Further, the TGI is 0.0529 µM in the assay with HOP-62 NSCLC; under 0.01 µM with SR leukemia; 0.0167 µM with UACC-62 melanoma; 0.0206 µM in the assay with OVCAR-8 ovarian; 1.09 µM in the assay with KM12 colon; 0.501 µM in the assay with RPMI-8226 leukemia.

Regarding `NC(Cc1c[nH]c2ccccc12)C(=O)O` (stereo unspecified), the TGI with U251 CNS is over 300 µM; in the assay with K-562 leukemia, over 189 µM; in the assay with NCI-H522 lung it was over 300 µM; in the assay on A498 renal, over 13.9 µM; in the assay with HCT-15 colon, over 191 µM; with OVCAR-5 ovarian, over 300 µM. In addition, the TGI in the assay on IGROV1 ovarian was over 300 µM; in the assay on HOP-62 NSCLC it was over 300 µM; with UACC-62 melanoma, over 300 µM; in the assay on OVCAR-8 ovarian, over 248 µM; in the assay with KM12 colon, over 300 µM; in the assay with UACC-257 melanoma, over 300 µM. The compound further showed a TGI with RPMI-8226 leukemia of over 300 µM.

For the compound `CC12CC3(O)OC(O1)C1(COC(=O)c4ccccc4)C3CC21OC1OC(CO)C(O)C(O)C1O` (stereo unspecified), the TGI with U251 CNS, in the assay on NCI-H522 lung, in the assay on A498 renal, in the assay on HCT-15 colon, in the assay with OVCAR-5 ovarian and in the assay on IGROV1 ovarian was over 100 µM throughout. In addition, the TGI in the assay on HOP-62 NSCLC, in the assay with SR leukemia, with UACC-62 melanoma, with OVCAR-8 ovarian, in the assay with KM12 colon and in the assay with UACC-257 melanoma was over 100 µM throughout. This compound also returned a TGI with RPMI-8226 leukemia of over 100 µM.

Turning to `Clc1ccc2c(NCCNc3ccnc4cc(Cl)ccc34)ccnc2c1`, the TGI with U251 CNS is 32.1 µM; with K-562 leukemia, 28.2 µM; in the assay with NCI-H522 lung, 35.2 µM; in the assay with A498 renal it was 32.2 µM; in the assay on HCT-15 colon it was 31 µM; in the assay on OVCAR-5 ovarian, 33.3 µM. In addition, the TGI was determined as 36.6 µM in the assay on IGROV1 ovarian; 30.1 µM in the assay with HOP-62 NSCLC; 33.1 µM in the assay with UACC-62 melanoma; 43.1 µM in the assay with OVCAR-8 ovarian; 32.5 µM with KM12 colon; 32.3 µM in the assay on UACC-257 melanoma. Also, in the assay on RPMI-8226 leukemia, the TGI was found to be 42 µM.

In the case of `CC[C@@]1(O)C(=O)OCc2c1cc1n(c2=O)Cc2c-1nc1ccccc1c2/C=N\NC(=O)C(N)Cc1cnc[nH]1` (stereo partly specified), the TGI with U251 CNS was 5.03 µM; in the assay on K-562 leukemia it was over 100 µM; in the assay on NCI-H522 lung it was over 19.7 µM; in the assay with A498 renal, 4.09 µM; in the assay with HCT-15 colon, over 100 µM; in the assay with OVCAR-5 ovarian it was over 54.6 µM. The TGI with IGROV1 ovarian was over 54.7 µM; in the assay on HOP-62 NSCLC, 0.299 µM; in the assay with SR leukemia it was 0.387 µM; in the assay on UACC-62 melanoma, 1.22 µM; in the assay on OVCAR-8 ovarian it was 16.1 µM; in the assay with KM12 colon, over 28.7 µM. In addition, the TGI in the assay with UACC-257 melanoma is over 84.3 µM; in the assay with RPMI-8226 leukemia, 44 µM.

`COc1cc(/C=C2\CN(S(=O)(=O)c3ccc(C)cc3)C/C(=C\c3cc(CN4CCCCC4)c(O)c(OC)c3)C2=O)cc(CN2CCCCC2)c1O`: the GI50 is 0.306 µM in the assay with NCI-H522 lung; 1.88 µM with OVCAR-5 ovarian; 1.63 µM with UACC-62 melanoma; 1.45 µM with UACC-257 melanoma; 2.03 µM in the assay on RPMI-8226 leukemia. The TGI amounted to 1.32 µM with NCI-H522 lung; 3.4 µM in the assay with OVCAR-5 ovarian; 3.32 µM in the assay on UACC-62 melanoma; 3.02 µM with UACC-257 melanoma; 5.45 µM in the assay with RPMI-8226 leukemia.
